From ChEMBL document CHEMBL4371004, “A-C Estrogens as Potent and Selective Estrogen Receptor-Beta Agonists (SERBAs) to Enhance Memory Consolidation under Low-Estrogen Conditions” (J Med Chem, 2018)

Key:
Estrogen receptor beta [1] = molecular target: T1, Estrogen receptor beta (Homo sapiens, UniProt Q92731)
Estrogen receptor beta [2] = molecular target: T1, Estrogen receptor beta; remark: listed apart in the source
Estrogen receptor [3] = molecular target: T2, Estrogen receptor (Homo sapiens, UniProt P03372)
T2 sequence (P03372 whole entry): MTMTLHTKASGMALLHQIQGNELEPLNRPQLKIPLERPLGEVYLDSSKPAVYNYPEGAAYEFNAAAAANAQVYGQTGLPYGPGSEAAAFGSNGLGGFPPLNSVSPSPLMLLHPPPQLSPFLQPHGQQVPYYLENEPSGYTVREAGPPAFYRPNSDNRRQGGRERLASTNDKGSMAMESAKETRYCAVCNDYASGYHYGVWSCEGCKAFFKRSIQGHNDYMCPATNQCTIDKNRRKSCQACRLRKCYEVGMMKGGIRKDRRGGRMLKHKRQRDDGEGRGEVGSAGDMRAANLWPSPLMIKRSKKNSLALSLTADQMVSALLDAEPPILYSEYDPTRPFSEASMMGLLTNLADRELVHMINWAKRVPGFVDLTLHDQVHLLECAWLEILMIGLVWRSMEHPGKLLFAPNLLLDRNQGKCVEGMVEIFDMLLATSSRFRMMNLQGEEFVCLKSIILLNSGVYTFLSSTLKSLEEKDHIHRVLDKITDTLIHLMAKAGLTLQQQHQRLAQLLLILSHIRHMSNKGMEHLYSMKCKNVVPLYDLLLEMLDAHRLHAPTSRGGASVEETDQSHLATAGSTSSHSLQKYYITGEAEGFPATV
Description: Agonist activity at estrogen receptor alpha (unknown origin) after 22 hrs by cell-based luciferase reporter gene assay

Estrogen receptor [4] = molecular target: T2, Estrogen receptor; remark: listed apart in the source
Mus musculus [5] = assay: Memory enhancement effect in C57BL/6 mouse assessed as time spent with moved object at 0.05 mg/kg, ip by novel object recognition test; format: functional
Mus musculus [6] = assay: Memory enhancement effect in C57BL/6 mouse assessed as time spent with novel object at 0.05 mg/kg, po administered via gavage by novel object recognition test; format: functional
Mus musculus [7] = assay: Memory enhancement effect in C57BL/6 mouse assessed as time spent with moved object at 10 pg administered as dorsal hippocampal infusion by novel object recognition test; format: functional
Mus musculus [8] = assay: Memory enhancement effect in C57BL/6 mouse assessed as time spent with novel object at 0.05 mg/kg, ip by novel object recognition test; format: functional
Mus musculus [9] = assay: Memory enhancement effect in C57BL/6 mouse assessed as time spent with moved object at 0.05 mg/kg, po administered via gavage by object recognition test; format: functional
Mus musculus [10] = assay: Memory enhancement effect in C57BL/6 mouse assessed as time spent with novel object at 10 pg administered as dorsal hippocampal infusion by novel object recognition test; format: functional

T1 sequence (Q92731 whole entry): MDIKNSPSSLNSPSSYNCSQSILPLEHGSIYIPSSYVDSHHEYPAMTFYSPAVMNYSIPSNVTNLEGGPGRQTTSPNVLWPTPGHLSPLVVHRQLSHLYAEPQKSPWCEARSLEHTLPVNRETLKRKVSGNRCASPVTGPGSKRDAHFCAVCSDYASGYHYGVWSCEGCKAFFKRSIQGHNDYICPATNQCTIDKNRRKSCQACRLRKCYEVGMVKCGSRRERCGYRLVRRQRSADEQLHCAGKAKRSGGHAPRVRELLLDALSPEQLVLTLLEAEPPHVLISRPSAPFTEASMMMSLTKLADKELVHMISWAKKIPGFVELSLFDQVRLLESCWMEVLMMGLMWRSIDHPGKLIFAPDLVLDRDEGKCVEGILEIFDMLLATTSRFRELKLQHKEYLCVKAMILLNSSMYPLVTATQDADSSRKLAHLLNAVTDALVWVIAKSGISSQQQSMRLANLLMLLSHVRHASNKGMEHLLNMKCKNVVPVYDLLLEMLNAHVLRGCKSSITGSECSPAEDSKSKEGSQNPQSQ

In the case of `OCC=C1CCC(c2ccc(O)cc2)CC1` (racemic), the EC50 (Estrogen receptor beta [1]) is reported as 0.68 µM.

`C=C1CCC(c2ccc(O)c(C=O)c2)CC1` showed an EC50 (Estrogen receptor beta [2]) of 21 µM.

Work on `OC[C@]1(O)CC[C@H](c2ccc(O)cc2)CC1` yielded an EC50 (Estrogen receptor beta [2]) of 2.7 µM.

With `O=C1CCC(c2ccc(O)cc2)CC1` the EC50 (Estrogen receptor beta [2]) was 19 µM.

`Oc1ccc([C@]23CC[C@H](CC2)CO3)cc1` gave an EC50 (Estrogen receptor beta [2]) of 0.25 µM.

For `C=C1CCC(c2ccc(O)c(/C=N/O)c2)CC1`, the EC50 (Estrogen receptor beta [2]) was 0.225 µM.

For `OCCC1CCC(c2ccc(O)cc2)CC1` (stereo not drawn), the EC50 (Estrogen receptor [3]) was > 50 µM and the EC50 (Estrogen receptor [4]) was > 10 µM.

For `N#CC(Cc1ccc(O)cc1)c1ccc(O)cc1` (stereo not drawn) [DIARYLPROPIONITRILE], the Time (Mus musculus [5]) was 3.2 s, the Time (Mus musculus [6]) was 3.89 s and the Time (Mus musculus [7]) was 4.5 s. It also gave a Time (Mus musculus [8]) of 3.52 s, a Time (Mus musculus [9]) of 2.76 s and a Time (Mus musculus [10]) of 2.35 s.

For `CC1CCC(c2ccc(O)cc2)CC1` (stereo not drawn), the EC50 (Estrogen receptor [3]) was > 10 µM and the EC50 (Estrogen receptor [4]) was > 10 µM.

Work on `C[C@]1(O)CC[C@@H](c2ccc(O)cc2)CC1` yielded an EC50 (Estrogen receptor beta [2]) of 6.29 µM.

In the case of `Oc1ccc([C@H]2CC[C@H](O)CC2)cc1`, the EC50 (Estrogen receptor beta [2]) is reported as 7.52 µM.

With `C=C1CCC(c2ccc(O)cc2)CC1` the EC50 (Estrogen receptor [3]) was > 10 µM and the EC50 (Estrogen receptor [4]) was > 10 µM.

For `ON=C1CCC(c2ccc(O)cc2)CC1` (stereo not drawn), the EC50 (Estrogen receptor beta [1]) was 1.57 µM.

For `OCC1CC=C(c2ccc(O)cc2)CC1` (racemic), the EC50 (Estrogen receptor [3]) was > 20 µM and the EC50 (Estrogen receptor [4]) was > 10 µM.
